Some test systems named below: SW-620 colon; HCT-15 colon; NCI-H522 lung; UO-31 renal; SK-MEL-2 melanoma; SK-OV-3 ovarian; MOLT-4 leukemia; NCI-H460 lung; HT29 colon; RPMI-8226 leukemia; SNB-75 CNS; LOX IMVI melanoma; HL-60(TB) leukemia; NCI/ADR-RES ovarian; HOP-92 NSCLC; COLO 205 colon; HS 578T breast; PC-3 prostate; MDA-MB-231 breast.
What all share (assay): NCI anticancer screen, dose series, 48 h

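Exposure lasted 48 hours, with cells grown in 96-well plates and compounds tested at five concentrations. TGI marks complete inhibition of growth.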

As for `COc1cc(C2c3cc4c(cc3OC3(O)COC(=O)C23)OCO4)cc(OC)c1OC` (stereo not given), the TGI in the assay on SW-620 colon was greater than 100 µM; in the assay on HCT-15 colon, greater than 100 µM; in the assay with NCI-H522 lung it was 54.1 µM; in the assay with UO-31 renal it was greater than 100 µM; in the assay on SK-MEL-2 melanoma, greater than 100 µM; in the assay with SK-OV-3 ovarian, 79 µM. Moreover, the TGI with MOLT-4 leukemia is greater than 100 µM; with NCI-H460 lung, greater than 100 µM; in the assay on HT29 colon it was greater than 100 µM; in the assay with RPMI-8226 leukemia, greater than 100 µM; with SNB-75 CNS, 54.5 µM; in the assay with LOX IMVI melanoma, greater than 100 µM. This molecule also displayed a TGI with HL-60(TB) leukemia of 97.7 µM.

For the molecule `CCCCC(NC(=O)CC)C(=O)O` (stereo not given), the TGI in the assay with SW-620 colon, with HCT-15 colon, in the assay on NCI-H522 lung, in the assay with UO-31 renal, in the assay on SK-MEL-2 melanoma and in the assay with SK-OV-3 ovarian was greater than 100 µM each time. Further, the TGI with MOLT-4 leukemia, with NCI/ADR-RES ovarian, with HOP-92 NSCLC, with NCI-H460 lung, in the assay with HT29 colon and in the assay with RPMI-8226 leukemia was greater than 100 µM throughout. Besides, the TGI in the assay with SNB-75 CNS, with LOX IMVI melanoma, in the assay on COLO 205 colon and in the assay with HL-60(TB) leukemia was greater than 100 µM in each case.

In the case of `COC(=O)C(/C(=N/N)C(=O)Nc1ccc(C)c(C)c1)c1nc2ccc(Cl)cc2[nH]c1=O` (stereo not given), the TGI with SW-620 colon, in the assay with HCT-15 colon, in the assay with NCI-H522 lung, with UO-31 renal, in the assay with SK-MEL-2 melanoma and in the assay with SK-OV-3 ovarian was greater than 100 µM throughout. Moreover, the TGI in the assay on HS 578T breast, with MOLT-4 leukemia, in the assay with NCI/ADR-RES ovarian, in the assay on HOP-92 NSCLC, in the assay with NCI-H460 lung and in the assay on PC-3 prostate was greater than 100 µM each time. Moreover, the TGI in the assay with HT29 colon, in the assay on RPMI-8226 leukemia, in the assay with SNB-75 CNS, with LOX IMVI melanoma, in the assay with MDA-MB-231 breast and with HL-60(TB) leukemia was greater than 100 µM each time.

With `CC1=C2C(=O)C3[C@@H](CCC4=CC(=O)CC[C@@]43C)C2CC[C@]12O[C@@H]1C[C@H](C)CN[C@H]1[C@H]2C` (stereo not given in full), the TGI in the assay with SW-620 colon was greater than 100 µM; in the assay with HCT-15 colon, greater than 100 µM; with NCI-H522 lung it was 37.1 µM; with UO-31 renal, greater than 100 µM; in the assay on SK-MEL-2 melanoma, 63.2 µM; in the assay with SK-OV-3 ovarian, greater than 100 µM. The TGI in the assay with MOLT-4 leukemia was 41.4 µM; in the assay with HOP-92 NSCLC it was greater than 100 µM; with NCI-H460 lung, greater than 100 µM; in the assay on HT29 colon, greater than 100 µM; with RPMI-8226 leukemia it was 49.7 µM; with SNB-75 CNS it was greater than 100 µM. Further, the TGI in the assay on LOX IMVI melanoma was greater than 100 µM; in the assay with COLO 205 colon it was greater than 100 µM; with HL-60(TB) leukemia, 28.2 µM.

On to `C=C[C@@]1(C)CC2CC[C@]3(C)C(C)=CC(=O)CC3[C@]2(C)CC1O` (stereo not given in full), for which the TGI was greater than 100 µM in the assay with SW-620 colon; greater than 100 µM with HCT-15 colon; 74.4 µM in the assay with NCI-H522 lung; greater than 100 µM in the assay on UO-31 renal; greater than 100 µM in the assay on SK-MEL-2 melanoma; greater than 100 µM with SK-OV-3 ovarian. Also, the TGI in the assay on HS 578T breast, with MOLT-4 leukemia, in the assay with NCI/ADR-RES ovarian, with HOP-92 NSCLC, in the assay with NCI-H460 lung and in the assay with PC-3 prostate was greater than 100 µM each time. Moreover, the TGI in the assay with HT29 colon was greater than 100 µM; in the assay with RPMI-8226 leukemia, greater than 100 µM; in the assay on LOX IMVI melanoma it was greater than 100 µM; in the assay on COLO 205 colon, greater than 100 µM; in the assay with HL-60(TB) leukemia, 82 µM.

For `Cc1ccc(S(=O)(=O)c2c(N)c3nccn3c3nc4ccccc4nc23)cc1`, the TGI with SW-620 colon, in the assay on HCT-15 colon, with NCI-H522 lung, in the assay on UO-31 renal, in the assay with SK-MEL-2 melanoma and in the assay on SK-OV-3 ovarian was greater than 100 µM throughout. The TGI in the assay with MOLT-4 leukemia, with HOP-92 NSCLC, in the assay with NCI-H460 lung, with RPMI-8226 leukemia, with SNB-75 CNS and in the assay with LOX IMVI melanoma was greater than 100 µM throughout. Further, the TGI with COLO 205 colon and with HL-60(TB) leukemia was greater than 100 µM in each case.

With `Cc1c2ccccc2c(CO)c2cc(F)c3ccccc3c12`, the TGI with SW-620 colon is greater than 100 µM; in the assay on NCI-H522 lung, 26.3 µM; in the assay on UO-31 renal it was greater than 100 µM; in the assay with SK-MEL-2 melanoma, 36.7 µM; with SK-OV-3 ovarian, 73.6 µM; in the assay on MOLT-4 leukemia, 39.6 µM. Also, the TGI in the assay on HOP-92 NSCLC is 78.4 µM; with HT29 colon, 49 µM; in the assay with SNB-75 CNS, greater than 100 µM; in the assay on LOX IMVI melanoma, 36.1 µM; in the assay with COLO 205 colon, 32.2 µM; in the assay on HL-60(TB) leukemia, 61 µM.

For the molecule `CCOc1ccc(C2=C(Cl)c3cc(OC)c(OC)cc3C2Cl)cc1` (stereo not given), the TGI with SW-620 colon is greater than 100 µM; in the assay with HCT-15 colon, greater than 100 µM; with NCI-H522 lung it was 49 µM; with UO-31 renal, greater than 100 µM; in the assay on SK-MEL-2 melanoma it was 70.6 µM; with SK-OV-3 ovarian, greater than 100 µM. Besides, the TGI in the assay with MOLT-4 leukemia is 78.4 µM; with HOP-92 NSCLC, 86.5 µM; with NCI-H460 lung, greater than 100 µM; in the assay on HT29 colon it was greater than 100 µM; in the assay with RPMI-8226 leukemia, 73 µM; with SNB-75 CNS, greater than 100 µM. Besides, the TGI was 45.1 µM with LOX IMVI melanoma, greater than 100 µM in the assay with COLO 205 colon and 49.4 µM in the assay with HL-60(TB) leukemia.

Regarding `C=C1C(=O)OC2C[C@H](C)C3CC(=O)C(C)=C3CC12` (stereo not given in full), the TGI is 18.7 µM with SW-620 colon; 25.9 µM with HCT-15 colon; 3.66 µM with NCI-H522 lung; 26 µM in the assay with UO-31 renal; 29 µM in the assay with SK-MEL-2 melanoma; greater than 100 µM with SK-OV-3 ovarian. Further, the TGI turned out to be 23.3 µM in the assay with MOLT-4 leukemia; 24.1 µM with HOP-92 NSCLC; 51.6 µM in the assay with NCI-H460 lung; 31 µM with HT29 colon; 21.9 µM with RPMI-8226 leukemia; 32.6 µM in the assay on SNB-75 CNS. For the same molecule, the TGI with LOX IMVI melanoma was determined as 30.4 µM; in the assay on COLO 205 colon, 26.5 µM; in the assay on HL-60(TB) leukemia, 8.42 µM.

The values above are taken from PubChem BioAssay (NCI).
